The values below are quoted from earlier work in patent US20200069777A1, “ANTIMICROBIAL COMPOSITIONS AND FORMULATIONS” (Matoke Holdings Limited, priority 2016, published 2020).

The conditions of the data set: 20° C. and 1 atm.

Turning to `O=C[C@H](O)[C@@H](O)[C@H](O)[C@H](O)CO` [Glucose], the solubility is listed as 90 g/100 g water.
